US20260069599A1, “INHIBITORS OF BROMODOMAIN-CONTAINING PROTEIN 4 AND PHOSPHOINOSITIDE 3-KINASE” (Board of Regents of the University of Nebraska, priority 2022, published 2026)
“Also recorded” adds a separate entry of the source.

What was measured:
DAOY and HDMB-03 cells = assay: Transwell migration assay; assay type: cell-based, human; conditions: vs control
Protocol: FIGS. 2A-2D show the effect of MDP5 treatment on cell viability and migration potential in MB cells. FIGS. 2A and 2B provide graphs of cell viability assays with DAOY cells (FIG. 2A) and HD-MB03 cells (FIG. 2B) with the indicated compounds. FIG. 2C provides images of the Transwell® migration assay and FIG. 2D provides quantitation of the Transwell® migration assay (top: DAOY cells; bottom: HD-MB03 cells). Cells were fixed in formalin and stained with 0.5% crystal violet for 30 minutes. Images were taken using a microscope at 20× objective. Stained cells were then dissolved in acetic acid solution and optical density (OD) was measured at 590 nm. Scale bar: 100 μm. **P<0.01 and ***P<0.001 vs Control.
Further, the effect of MDPS on cell migration was investigated.

MB cells = assay: Scratch (wound) cell migration assay; assay type: cell-based, human; conditions: 0 to 24 hours, vs untreated MB cells
Protocol: Regarding the cell migration, scratch distances and width closure were measured between images from time 0 to 24 hours. After 24 hours, the untreated MB cells migrated and covered approximately 50% to 60% of the wound area quantified at time zero. […] Initial wound edges marked initial cell migration and were used to identify the decrease in wound width throughout the experiment. Migration distances were shown separately during the period of 0-24 hours. A significant difference in migration distance was found for the treated group compared to the control, while no difference in motility was found within the treated groups.

BRD4-BD2 = BRD4-BD2 (Homo sapiens, UniProt O60885); assay: Protein Thermal Shift (PTS) assay on BRD4-BD2; assay type: binding; set-up: polyhistidine (N, cleaved yes); made in house; host or cells: E. coli (T7 express); conditions: 100 μM ligand, 20 μM BD protein
Protocol: The genes encoding human BRD2-BD1, BRD2-BD2, and BRD4-BD2 were codon-optimized for expression in E. coli. […] The sequence-confirmed plasmids were used to transform T7 express E coli. Large-scale cell cultures were grown in LB media containing […] carbenicillin and incubated with shaking at 37° C. until the OD600 nm reached 0.6. Then cultures were cooled to 16° C., and 1 mM isopropyl β-D-1-thiogalactopyranoside was added to induce the protein expression. After 20 hours of incubation, cells were harvested. The resulting cell pellet was resuspended in a lysis buffer containing 50 mM Tris pH 7.5, 200 mM NaCl, 0.5 mM imidazole, and 0.3 mM tris(2-carboxyethyl) phosphine (TECP). After the addition of DNase I and lysozyme, the cell suspension was incubated on ice for 30 minutes and lysed by sonication. The lysate was clarified by centrifugation at 12,000 rpm for 45 minutes. The resulting supernatant was applied to a 5 mL metal affinity cobalt column pre-equilibrated with lysis buffer. Then, 25 column volumes of lysis buffer were passed through the column to eliminate unbound E coli proteins. Recombinant protein was eluted isocratically with the elution buffer containing 50 mM Tris pH 7.5, 200 mM NaCl, 150 mM imidazole, and 0.3 mM TECP. The rhinovirus 3C protease was added to the eluted recombinant protein to cleave the N-terminal Histidine tag and the sample dialyzed against a buffer containing 50 mM Tris pH 7.5, 100 mM NaCl and 0.3 mM TECP. After 12 hours, the protein solution was passed through a 5 ml cobalt column, which was pre-equilibrated with dialysis buffer, and the recombinant protein lacking the His-tag was collected from the flowthrough.
Each reaction used 20 μM concentration of recombinant BD protein in a 50 mM Tris pH 7.5 buffer containing 100 mM NaCl, 0.3 mM tris(2-carboxyethyl) phosphine HCl, and 1% dimethyl sulfoxide. Protein Thermal Shift Dye (ThermoFisher) was also added at 1× concentration. Under these conditions, 3 protein melting curves with each respective BD and 100 μM final concentration of ligand were performed from 25 to 95° C. with a ramp rate of 0.5° C./minute. Evaluation of the derivative of the fluorescence signal employed the Applied Bioscience Protein Thermal Shift Software version 1.3 to determine the average melting temperature (Tm) for each sample and the standard deviation(s) of those Tm values.

[1] = tested on: DAOY cell generated orthotopic MB; assay: Intracranial orthotopic MB xenograft model; assay type: in vivo, NSG mice; conditions: for tumor at cerebellum region by H&E and Ki-67 IHC: vehicle-treated vs treated mice
Protocol: For the orthotopic MB model, stable luciferase-expressing DAOY cells (0.1×10^6) were used to generate the orthotopic MB tumor in NSG mice (Kumar, et al. (2021) Biomaterials 278:121138). Bioluminescence imaging using IVIS (Spectrum) was done to monitor the tumor growth weekly after implantation surgery.
A total of seven injections were given, and the mouse body weights were measured before every injection. The tumor growth was monitored by calipers in the case of the xenograft model and by IVIS imaging for the orthotopic model. For histological examination, the major organs of representative mice from each animal group were dissected and stained with H&E. Tissues after being fixed with 10% paraformaldehyde solution for 24 hours were embedded in 5 μm thick sections of paraffin, and were stained for different proteins. Stained slides were imaged at 40× magnification using an iScan HT Slide Scanner (Ventana Medical Systems, Inc, AZ).
Next, it was tested whether MDP5 treatment suppresses MB growth in an intracranial orthotopic xenograft model. DAOY cells stably expressing green fluorescent protein (GFP)/luciferase were injected into the cerebella of NSG mice. After twenty-one days of implantation, the tumor signal was measured with IVIS, and animals were divided into the vehicle (propylene glycol) or MDP5 treated groups. A drug solution was injected every three days for 28 days, and bioluminescence imaging was performed once a week.

BRD2-BD2 = target: T1, BRD2-BD2 (Homo sapiens, UniProt P25440); assay: Protein Thermal Shift (PTS) assay on BRD2-BD2; assay type: binding; conditions: 100 μM ligand, 20 μM BD protein; positive = Tm increase
T1 construct: polyhistidine (N, cleaved yes); made in house; host or cells: E. coli (T7 express)
T1 sequence (P25440 344-453 limits assumed): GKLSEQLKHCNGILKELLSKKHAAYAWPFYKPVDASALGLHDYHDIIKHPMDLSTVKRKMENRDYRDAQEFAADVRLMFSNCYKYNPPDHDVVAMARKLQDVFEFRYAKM
Protocol: The genes encoding human BRD2-BD1, BRD2-BD2, and BRD4-BD2 were codon-optimized for expression in E. coli. […] The sequence-confirmed plasmids were used to transform T7 express E coli. Large-scale cell cultures were grown in LB media containing […] carbenicillin and incubated with shaking at 37° C. until the OD600 nm reached 0.6. Then cultures were cooled to 16° C., and 1 mM isopropyl β-D-1-thiogalactopyranoside was added to induce the protein expression. After 20 hours of incubation, cells were harvested. The resulting cell pellet was resuspended in a lysis buffer containing 50 mM Tris pH 7.5, 200 mM NaCl, 0.5 mM imidazole, and 0.3 mM tris(2-carboxyethyl) phosphine (TECP). After the addition of DNase I and lysozyme, the cell suspension was incubated on ice for 30 minutes and lysed by sonication. The lysate was clarified by centrifugation at 12,000 rpm for 45 minutes. […]
Each reaction used 20 μM concentration of recombinant BD protein in a 50 mM Tris pH 7.5 buffer containing 100 mM NaCl, 0.3 mM tris(2-carboxyethyl) phosphine HCl, and 1% dimethyl sulfoxide. […] Evaluation of the derivative of the fluorescence signal employed the Applied Bioscience Protein Thermal Shift Software version 1.3 to determine the average melting temperature (Tm) for each sample and the standard deviation(s) of those Tm values.

[2] = tested on: DAOY and HD-MB03 spheroids; assay: Tumor spheroid live/dead assay; assay type: cell-based, human; conditions: 5.0 μM, 7 days
Protocol: Tumor spheroids were formed using MB cells following the method described (Bhattarai, et al. (2021) J. Control. Release 329:585-597). For tumor spheroids assay, 1500 and 500 DAOY and HD-MB03 cells, respectively, were suspended in 100 μL media and seeded in ultra-low attachment (ULA) 96-well plate for a week and 50 μL of media was replaced by fresh media every third day and spheroid size was tracked under fluorescent microscope. […] After 7 days of the treatment period, spheroids were stained with Calcein AM (2 μM) and ethidium homodimer-1 (3 μM) (LIVE/DEAD™; L3224) to check the live/dead cells. Images were taken by confocal laser microscope (Zesis LSM 710) with 10× magnification at 40 μm depth.

SMILES | cells migrated in Transwell migration assay (DAOY and HDMB-03 cells) | cell migration into wound area (MB cells) | BRD4-BD2 Tm decrease (BRD4-BD2; thermal destabilization) | survival ([1]; control animals all dead by day 35) | orthotopic tumor growth (IVIS imaging) ([1]; injection every three days for 28 days) | tumor at cerebellum region by H&E and Ki-67 IHC [1] | bioluminescence (BLI) signal ([1]; vs rapid increase in control animals) | change in BRD2-BD2 melting temperature (Tm) (BRD2-BD2) | cell viability of tumor spheroids [2] | size / formation of tumor spheroids ([2]; vs DMSO-treated control) | BRD4-BD2 Tm increase (BRD4-BD2)
O=C(/C=C/N1CCOCC1)c1cccc(-c2cc3c(cc2Br)OCCO3)c1O [MDP1, (E)-1-(3-(7-bromo-2,3-dihydrobenzo [b][1,4]dioxin-6-yl)-2-hydroxyphenyl)-3-morpholinoprop-2-en-1-one] | decreased the amount of DAOY and HDMB-03 cells migrated | lesser migration | 1.3 °C |  |  |  |  |  |  |  | 
O=c1cc(N2CCOCC2)oc2c(-c3ccc4c(c3)OCCO4)cccc12 [MDP5, 8-(2,3-dihydrobenzo [b][1,4]dioxin-6-yl)-2-morpholino-4H-chromen-4-one] | decrease migration significantly | lesser migration |  | four animals out of five survived up to 49 days; also recorded: prolonged the survival | significant effect on the suppression of tumor growth; also recorded: significantly suppressed tumor growth in vivo | much larger tumor at the cerebellum region of the vehicle-treated mouse | low BLI signal | 2.4 °C | significantly decreased | decreased the tumor spheroid formation in both MB cells | 1.7 °C
O=c1cc(N2CCOCC2)oc2c(-c3ccc4c(c3)OCCO4)csc12 [SF2523, reference compound] | decreased the amount of DAOY and HDMB-03 cells migrated | lesser migration |  |  |  | much larger tumor at the cerebellum region of the vehicle-treated mouse |  | 6.3 °C | significantly decreased |  | 3.4 °C
